Experimental data from US7390838B2, “Depigmenting agents” (Pfizer Inc., priority 2003, dated 2008).

melting point: 65 to 66.5 °C
Compound: Oc1ccc(C2CCCC2)c(O)c1 [Form A, 4-cyclopentyl resorcinol]
